Results taken from the NIST ThermoML archive (doi:10.1021/je100552a).
± gives the expanded uncertainty stated by the source.

What was measured:
[1] = xn = mol fraction of the nth substance listed; details: 101 kPa, Liquid; for viscosity: Capillary tube (Ostwald / Ubbelohde) method
[2] = refractive index (Na D-line) (dimensionless); xn = mol fraction of the nth substance listed; details: 101 kPa, Liquid, Standard Abbe refractometry

Brc1ccccc1 [bromobenzene] + ClCCCl
Details	refractive index, 298.15 K	refractive index, 303.15 K	refractive index, 308.15 K	refractive index, 313.15 K	viscosity, 298.15 K [mPa·s]	viscosity, 303.15 K [mPa·s]	viscosity, 308.15 K [mPa·s]	viscosity, 313.15 K [mPa·s]
[1], x2 = 0.1014	–	–	–	–	1.041 ± 0.0082	0.9749 ± 0.0078	0.9162 ± 0.0073	0.8463 ± 0.0068
[1], x2 = 0.2002	–	–	–	–	1.004 ± 0.008	0.9388 ± 0.0075	0.8809 ± 0.0071	0.8155 ± 0.0066
[1], x2 = 0.3004	–	–	–	–	0.9677 ± 0.0077	0.904 ± 0.0072	0.8474 ± 0.0068	0.787 ± 0.0064
[1], x2 = 0.3999	–	–	–	–	0.9348 ± 0.0075	0.8714 ± 0.007	0.815 ± 0.0066	0.7607 ± 0.0062
[1], x2 = 0.5008	–	–	–	–	0.9036 ± 0.0072	0.8409 ± 0.0068	0.7839 ± 0.0064	0.7355 ± 0.006
[1], x2 = 0.6001	–	–	–	–	0.8752 ± 0.007	0.8141 ± 0.0066	0.7583 ± 0.0062	0.712 ± 0.0058
[1], x2 = 0.6999	–	–	–	–	0.8496 ± 0.0068	0.7886 ± 0.0064	0.7321 ± 0.006	0.6917 ± 0.0057
[1], x2 = 0.7995	–	–	–	–	0.8268 ± 0.0067	0.7646 ± 0.0062	0.711 ± 0.0058	0.6728 ± 0.0055
[1], x2 = 0.8998	–	–	–	–	0.8058 ± 0.0065	0.7445 ± 0.0061	0.6904 ± 0.0057	0.6569 ± 0.0054
[2], x2 = 0.1014	1.5479 ± 0.0005	1.5439 ± 0.0005	1.5412 ± 0.0005	1.5372 ± 0.0005	–	–	–	–
[2], x2 = 0.2002	1.5398 ± 0.0005	1.5355 ± 0.0005	1.5321 ± 0.0005	1.5279 ± 0.0005	–	–	–	–
[2], x2 = 0.3004	1.5313 ± 0.0005	1.5266 ± 0.0005	1.5227 ± 0.0005	1.5182 ± 0.0005	–	–	–	–
[2], x2 = 0.3999	1.5218 ± 0.0005	1.517 ± 0.0005	1.5128 ± 0.0005	1.5079 ± 0.0005	–	–	–	–
[2], x2 = 0.5008	1.5107 ± 0.0005	1.506 ± 0.0005	1.5015 ± 0.0005	1.4967 ± 0.0005	–	–	–	–
[2], x2 = 0.6001	1.4984 ± 0.0005	1.494 ± 0.0005	1.4893 ± 0.0005	1.4849 ± 0.0005	–	–	–	–
[2], x2 = 0.6999	1.4847 ± 0.0005	1.4808 ± 0.0005	1.4761 ± 0.0005	1.4722 ± 0.0005	–	–	–	–
[2], x2 = 0.7995	1.4704 ± 0.0005	1.4671 ± 0.0005	1.4622 ± 0.0005	1.459 ± 0.0005	–	–	–	–
[2], x2 = 0.8998	1.4559 ± 0.0005	1.4528 ± 0.0005	1.4479 ± 0.0005	1.4452 ± 0.0005	–	–	–	–

mass density [kg/m3], [1], Vibrating tube method
Details	x2 = 0.1014	x2 = 0.2002	x2 = 0.3004	x2 = 0.3999	x2 = 0.5008	x2 = 0.6001	x2 = 0.6999	x2 = 0.7995	x2 = 0.8998
298.15 K	1469.57 ± 0.64	1449.41 ± 0.62	1428.09 ± 0.6	1406.01 ± 0.58	1382.5 ± 0.56	1358.18 ± 0.54	1332.44 ± 0.52	1305.43 ± 0.49	1276.72 ± 0.47
303.15 K	1461.55 ± 0.64	1441.65 ± 0.62	1420.51 ± 0.6	1398.59 ± 0.58	1375.26 ± 0.55	1351.21 ± 0.53	1325.77 ± 0.51	1299.12 ± 0.49	1270.73 ± 0.46
308.15 K	1455.77 ± 0.63	1435.38 ± 0.61	1413.75 ± 0.59	1391.37 ± 0.57	1367.54 ± 0.55	1342.97 ± 0.52	1317.02 ± 0.5	1289.84 ± 0.48	1260.96 ± 0.45
313.15 K	1447.63 ± 0.62	1427.53 ± 0.6	1406.26 ± 0.58	1384.19 ± 0.56	1360.71 ± 0.54	1336.5 ± 0.52	1310.92 ± 0.5	1284.14 ± 0.47	1255.65 ± 0.45

Clc1ccccc1 [chlorobenzene] + ClCCCl
Details	mass density, [1] [kg/m3]	refractive index, [2]	viscosity, [1] [mPa·s]
298.15 K, x2 = 0.1022	1111.56 ± 0.69	1.5149 ± 0.0005	0.7456 ± 0.0061
298.15 K, x2 = 0.2015	1123.05 ± 0.72	1.508 ± 0.0005	0.7387 ± 0.006
298.15 K, x2 = 0.3013	1135.29 ± 0.76	1.5012 ± 0.0005	0.7351 ± 0.006
298.15 K, x2 = 0.4039	1148.64 ± 0.8	1.4935 ± 0.0005	0.7364 ± 0.006
298.15 K, x2 = 0.4999	1161.91 ± 0.83	1.486 ± 0.0005	0.7372 ± 0.006
298.15 K, x2 = 0.5977	1176.36 ± 0.87	1.4781 ± 0.0005	0.741 ± 0.006
298.15 K, x2 = 0.6986	1192.24 ± 0.92	1.4696 ± 0.0005	0.7445 ± 0.0061
298.15 K, x2 = 0.8	1209.3 ± 0.97	1.4607 ± 0.0005	0.7536 ± 0.0061
298.15 K, x2 = 0.899	1227.12 ± 1	1.4516 ± 0.0005	0.7659 ± 0.0062
303.15 K, x2 = 0.1022	1106.04 ± 0.68	1.512 ± 0.0005	0.7146 ± 0.0059
303.15 K, x2 = 0.2015	1117.48 ± 0.71	1.5052 ± 0.0005	0.7049 ± 0.0058
303.15 K, x2 = 0.3013	1129.68 ± 0.74	1.4983 ± 0.0005	0.6991 ± 0.0057
303.15 K, x2 = 0.4039	1142.96 ± 0.78	1.4908 ± 0.0005	0.6969 ± 0.0057
303.15 K, x2 = 0.4999	1156.2 ± 0.82	1.4832 ± 0.0005	0.6963 ± 0.0057
303.15 K, x2 = 0.5977	1170.62 ± 0.86	1.4752 ± 0.0005	0.6973 ± 0.0057
303.15 K, x2 = 0.6986	1186.46 ± 0.9	1.4666 ± 0.0005	0.6975 ± 0.0057
303.15 K, x2 = 0.8	1203.48 ± 0.95	1.4576 ± 0.0005	0.7009 ± 0.0058
303.15 K, x2 = 0.899	1221.28 ± 1	1.4484 ± 0.0005	0.71 ± 0.0058
308.15 K, x2 = 0.1022	1100.15 ± 0.66	1.509 ± 0.0005	0.6659 ± 0.0055
308.15 K, x2 = 0.2015	1111.22 ± 0.69	1.5022 ± 0.0005	0.6595 ± 0.0055
308.15 K, x2 = 0.3013	1123.02 ± 0.72	1.4951 ± 0.0005	0.6542 ± 0.0054
308.15 K, x2 = 0.4039	1135.91 ± 0.76	1.4873 ± 0.0005	0.6505 ± 0.0054
308.15 K, x2 = 0.4999	1148.68 ± 0.8	1.4797 ± 0.0005	0.6506 ± 0.0054
308.15 K, x2 = 0.5977	1162.62 ± 0.84	1.4715 ± 0.0005	0.65 ± 0.0054
308.15 K, x2 = 0.6986	1177.92 ± 0.88	1.4626 ± 0.0005	0.6493 ± 0.0054
308.15 K, x2 = 0.8	1194.4 ± 0.93	1.4534 ± 0.0005	0.653 ± 0.0054
308.15 K, x2 = 0.899	1211.62 ± 0.97	1.444 ± 0.0005	0.6574 ± 0.0054
313.15 K, x2 = 0.1022	1094.68 ± 0.65	1.5049 ± 0.0005	0.619 ± 0.0052
313.15 K, x2 = 0.2015	1105.79 ± 0.68	1.4983 ± 0.0005	0.6151 ± 0.0051
313.15 K, x2 = 0.3013	1117.62 ± 0.71	1.4915 ± 0.0005	0.6143 ± 0.0051
313.15 K, x2 = 0.4039	1130.48 ± 0.75	1.4838 ± 0.0005	0.6119 ± 0.0051
313.15 K, x2 = 0.4999	1143.37 ± 0.78	1.4763 ± 0.0005	0.6125 ± 0.0051
313.15 K, x2 = 0.5977	1157.36 ± 0.82	1.4682 ± 0.0005	0.6158 ± 0.0051
313.15 K, x2 = 0.6986	1172.73 ± 0.86	1.4595 ± 0.0005	0.6191 ± 0.0052
313.15 K, x2 = 0.8	1189.28 ± 0.91	1.4503 ± 0.0005	0.6241 ± 0.0052
313.15 K, x2 = 0.899	1206.59 ± 0.96	1.441 ± 0.0005	0.6314 ± 0.0052
